Laboratory results from publication PMC7031773, “Molecular Mechanisms Responsible for Pharmacological Effects of Genipin on Mitochondrial Proteins” (Biophysical Journal, 2019).

How the values were obtained:
Format in all cases: biochemical
[1] = target: T1, mitochondrial uncoupling protein 1 (UCP1) (Mus musculus, UniProt P12242); assay: planar lipid bilayer conductance, competition of […] ATP with […] genipin
T1 construct: recombinant mouse UCP1 from E. coli inclusion bodies, reconstituted in lipid bilayers
T1 sequence (P12242 1-307): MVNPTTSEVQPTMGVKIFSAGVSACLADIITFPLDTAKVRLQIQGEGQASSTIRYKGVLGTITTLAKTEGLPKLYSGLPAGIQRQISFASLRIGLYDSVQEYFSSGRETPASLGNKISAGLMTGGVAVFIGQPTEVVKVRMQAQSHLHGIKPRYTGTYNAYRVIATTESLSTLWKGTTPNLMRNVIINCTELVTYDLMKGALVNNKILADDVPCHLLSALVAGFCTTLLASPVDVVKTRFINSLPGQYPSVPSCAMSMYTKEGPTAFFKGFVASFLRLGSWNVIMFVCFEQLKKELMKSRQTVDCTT
Source text: The first bar is the inhibition after the addition of ATP

[2] = target: T2, mitochondrial uncoupling protein 3 (UCP3) (Mus musculus, UniProt P56501); assay: planar lipid bilayer conductance with reconstituted UCP3
T2 construct: recombinant mouse UCP3 from E. coli inclusion bodies, reconstituted in lipid bilayers
T2 sequence (P56501 1-308): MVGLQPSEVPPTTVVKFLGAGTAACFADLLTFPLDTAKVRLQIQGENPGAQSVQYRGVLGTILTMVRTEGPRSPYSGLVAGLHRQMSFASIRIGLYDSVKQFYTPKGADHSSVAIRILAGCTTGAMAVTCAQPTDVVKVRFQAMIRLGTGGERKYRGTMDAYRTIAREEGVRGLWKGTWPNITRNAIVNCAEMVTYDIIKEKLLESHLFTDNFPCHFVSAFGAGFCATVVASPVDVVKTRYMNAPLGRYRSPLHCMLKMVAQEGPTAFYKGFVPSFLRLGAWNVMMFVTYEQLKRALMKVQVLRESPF

[3] = target: T3, mitochondrial uncoupling protein 2 (UCP2) (Mus musculus, UniProt P70406); assay: planar lipid bilayer conductance with reconstituted UCP2
T3 construct: recombinant mouse UCP2 from E. coli inclusion bodies, reconstituted in lipid bilayers
T3 sequence (P70406 1-309): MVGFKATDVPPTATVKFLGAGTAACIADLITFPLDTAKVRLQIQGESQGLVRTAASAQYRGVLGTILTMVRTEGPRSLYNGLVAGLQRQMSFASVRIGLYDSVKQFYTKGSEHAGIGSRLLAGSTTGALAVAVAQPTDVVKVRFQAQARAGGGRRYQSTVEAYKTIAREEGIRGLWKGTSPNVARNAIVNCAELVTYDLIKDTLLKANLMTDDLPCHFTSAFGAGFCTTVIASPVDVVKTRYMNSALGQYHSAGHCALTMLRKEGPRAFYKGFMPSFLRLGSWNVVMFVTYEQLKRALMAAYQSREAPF

[4] = target: T4, mitochondrial complex III (CIII) (Bos taurus, UniProt P00157); assay: cytochrome c reduction by isolated complex III, […] genipin
T4 construct: gene MT-CYB; complex III isolated from bovine heart

[5] = target: T1, mitochondrial uncoupling protein 1 (UCP1); assay: planar lipid bilayer conductance with reconstituted UCP1; LC-MS/MS of covalent adducts; arginine mutants; competition with ATP
[6] = target: T1, mitochondrial uncoupling protein 1 (UCP1); assay: planar lipid bilayer conductance with reconstituted UCP1

In the case of `Nc1ncnc2c1ncn2[C@@H]1O[C@H](COP(=O)(O)OP(=O)(O)OP(=O)(O)O)[C@@H](O)[C@H]1O` [ATP], the “planar lipid bilayer conductance, competition of 3 mM ATP with 50 μM genipin” value [1] is reported as “Competitive inhibition of UCP1 with genipin (GNP) and ATP. The first bar is the inhibition after the addition of ATP”.

`COC(=O)C1=CO[C@@H](O)[C@@H]2C(CO)=CC[C@H]12` [GNP, genipin] showed an IC50 [2] of 41 ± 12 µM, an IC50 [3] of 94 ± 24 µM and an activity at 50 µM [4] of 63 ± 7%. It also gave an IC50 [5] of 133 ± 12 µM.

Molecule `COC(=O)C1=CO[C@@H](O[C@@H]2O[C@H](CO)[C@@H](O)[C@H](O)[C@H]2O)[C@@H]2C(CO)=CC[C@H]12` [geniposide] has an EC50 [6] of 693 ± 90 µM.
